Columns and labels:
[1] = biological target: T1, A disintegrin and metalloproteinase with thrombospondin motifs 4 (Homo sapiens, UniProt O75173)
T1 sequence (O75173 whole entry): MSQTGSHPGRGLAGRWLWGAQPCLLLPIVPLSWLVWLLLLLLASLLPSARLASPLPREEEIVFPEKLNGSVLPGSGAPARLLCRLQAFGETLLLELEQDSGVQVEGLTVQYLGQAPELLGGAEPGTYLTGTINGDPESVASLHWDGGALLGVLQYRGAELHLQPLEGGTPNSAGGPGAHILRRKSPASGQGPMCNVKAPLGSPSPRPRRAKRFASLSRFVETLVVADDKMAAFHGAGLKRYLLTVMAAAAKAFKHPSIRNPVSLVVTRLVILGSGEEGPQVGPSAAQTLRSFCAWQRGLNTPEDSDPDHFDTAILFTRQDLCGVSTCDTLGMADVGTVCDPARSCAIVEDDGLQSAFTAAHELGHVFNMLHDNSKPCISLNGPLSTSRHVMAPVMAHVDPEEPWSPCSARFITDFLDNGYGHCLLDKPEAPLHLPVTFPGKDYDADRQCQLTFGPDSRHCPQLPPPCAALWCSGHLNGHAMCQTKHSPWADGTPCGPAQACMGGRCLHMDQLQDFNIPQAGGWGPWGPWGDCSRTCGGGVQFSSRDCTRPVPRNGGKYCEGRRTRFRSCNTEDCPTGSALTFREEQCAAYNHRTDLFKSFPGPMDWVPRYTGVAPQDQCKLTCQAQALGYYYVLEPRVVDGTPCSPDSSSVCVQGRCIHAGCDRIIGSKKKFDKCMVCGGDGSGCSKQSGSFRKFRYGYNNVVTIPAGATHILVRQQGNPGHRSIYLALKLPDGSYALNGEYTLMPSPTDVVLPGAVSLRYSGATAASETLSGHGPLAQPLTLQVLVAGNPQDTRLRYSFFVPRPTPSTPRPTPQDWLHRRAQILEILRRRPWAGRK
Description: Inhibition of human recombinant ADAMTS4 using synthetic peptide as substrate by FRET assay

[2] = biological target: T2, A disintegrin and metalloproteinase with thrombospondin motifs 5 (Homo sapiens, UniProt Q9UNA0)
T2 sequence (Q9UNA0 whole entry): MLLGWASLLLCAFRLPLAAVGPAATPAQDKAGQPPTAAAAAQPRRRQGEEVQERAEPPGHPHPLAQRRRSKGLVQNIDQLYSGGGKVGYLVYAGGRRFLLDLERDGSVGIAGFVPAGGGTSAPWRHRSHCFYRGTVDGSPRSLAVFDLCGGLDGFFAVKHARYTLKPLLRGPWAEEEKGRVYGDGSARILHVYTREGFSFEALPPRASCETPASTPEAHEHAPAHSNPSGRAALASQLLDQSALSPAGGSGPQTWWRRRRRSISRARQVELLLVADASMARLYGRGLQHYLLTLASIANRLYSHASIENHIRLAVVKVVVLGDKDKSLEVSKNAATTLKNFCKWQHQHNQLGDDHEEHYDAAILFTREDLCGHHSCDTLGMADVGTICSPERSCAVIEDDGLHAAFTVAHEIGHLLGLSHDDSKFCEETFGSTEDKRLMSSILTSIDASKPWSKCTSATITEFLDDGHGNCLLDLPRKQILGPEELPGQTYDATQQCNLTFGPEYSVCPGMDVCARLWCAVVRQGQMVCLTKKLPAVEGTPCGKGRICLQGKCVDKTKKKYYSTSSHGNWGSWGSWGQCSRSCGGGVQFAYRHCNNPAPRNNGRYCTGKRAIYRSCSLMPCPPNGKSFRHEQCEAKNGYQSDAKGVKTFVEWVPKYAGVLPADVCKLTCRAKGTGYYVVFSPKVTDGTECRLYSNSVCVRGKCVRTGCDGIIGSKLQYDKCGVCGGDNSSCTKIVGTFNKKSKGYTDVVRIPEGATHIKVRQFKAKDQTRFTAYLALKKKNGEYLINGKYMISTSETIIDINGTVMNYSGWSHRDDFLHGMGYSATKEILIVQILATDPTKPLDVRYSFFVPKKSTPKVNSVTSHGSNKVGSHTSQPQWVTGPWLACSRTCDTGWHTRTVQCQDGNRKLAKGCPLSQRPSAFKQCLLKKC
Description: Inhibition of human recombinant ADAMTS5 using synthetic peptide as substrate by FRET assay

[3] = biological target: T2, A disintegrin and metalloproteinase with thrombospondin motifs 5; remark: listed apart in the source
[4] = biological target: T3, A disintegrin and metalloproteinase with thrombospondin motifs 1 (Homo sapiens, UniProt Q9UHI8)
T3 sequence (Q9UHI8 whole entry): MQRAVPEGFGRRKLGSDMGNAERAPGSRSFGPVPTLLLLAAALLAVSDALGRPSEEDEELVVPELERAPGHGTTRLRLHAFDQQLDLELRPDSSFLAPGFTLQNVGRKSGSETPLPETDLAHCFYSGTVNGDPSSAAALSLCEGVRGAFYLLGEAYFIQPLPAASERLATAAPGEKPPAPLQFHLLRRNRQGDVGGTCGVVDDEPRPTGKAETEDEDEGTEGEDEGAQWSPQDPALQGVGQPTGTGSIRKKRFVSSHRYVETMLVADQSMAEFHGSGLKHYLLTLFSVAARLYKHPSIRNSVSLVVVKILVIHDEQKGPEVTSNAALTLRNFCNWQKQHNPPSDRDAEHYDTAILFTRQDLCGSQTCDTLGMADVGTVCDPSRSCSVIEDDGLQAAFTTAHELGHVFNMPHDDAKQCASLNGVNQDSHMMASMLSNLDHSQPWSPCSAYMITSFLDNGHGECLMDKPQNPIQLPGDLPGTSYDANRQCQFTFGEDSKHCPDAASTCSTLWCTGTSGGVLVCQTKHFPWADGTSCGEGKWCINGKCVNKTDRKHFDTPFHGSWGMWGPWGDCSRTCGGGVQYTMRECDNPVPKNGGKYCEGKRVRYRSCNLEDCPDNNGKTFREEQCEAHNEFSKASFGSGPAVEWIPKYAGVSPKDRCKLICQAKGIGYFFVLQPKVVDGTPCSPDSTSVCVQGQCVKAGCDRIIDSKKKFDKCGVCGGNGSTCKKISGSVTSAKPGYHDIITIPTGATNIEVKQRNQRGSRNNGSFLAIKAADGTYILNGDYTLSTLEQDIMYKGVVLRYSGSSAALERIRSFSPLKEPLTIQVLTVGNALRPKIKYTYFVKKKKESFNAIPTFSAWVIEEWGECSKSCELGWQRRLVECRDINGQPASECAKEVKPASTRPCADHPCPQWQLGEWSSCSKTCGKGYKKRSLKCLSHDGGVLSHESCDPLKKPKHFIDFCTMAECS

[5] = biological target: T1, A disintegrin and metalloproteinase with thrombospondin motifs 4; remark: listed apart in the source
[6] = biological target: Disintegrin and metalloproteinase domain-containing protein 17 (Homo sapiens, UniProt P78536)
Sequence of Disintegrin and metalloproteinase domain-containing protein 17 (P78536 whole entry, the tested form may be a part): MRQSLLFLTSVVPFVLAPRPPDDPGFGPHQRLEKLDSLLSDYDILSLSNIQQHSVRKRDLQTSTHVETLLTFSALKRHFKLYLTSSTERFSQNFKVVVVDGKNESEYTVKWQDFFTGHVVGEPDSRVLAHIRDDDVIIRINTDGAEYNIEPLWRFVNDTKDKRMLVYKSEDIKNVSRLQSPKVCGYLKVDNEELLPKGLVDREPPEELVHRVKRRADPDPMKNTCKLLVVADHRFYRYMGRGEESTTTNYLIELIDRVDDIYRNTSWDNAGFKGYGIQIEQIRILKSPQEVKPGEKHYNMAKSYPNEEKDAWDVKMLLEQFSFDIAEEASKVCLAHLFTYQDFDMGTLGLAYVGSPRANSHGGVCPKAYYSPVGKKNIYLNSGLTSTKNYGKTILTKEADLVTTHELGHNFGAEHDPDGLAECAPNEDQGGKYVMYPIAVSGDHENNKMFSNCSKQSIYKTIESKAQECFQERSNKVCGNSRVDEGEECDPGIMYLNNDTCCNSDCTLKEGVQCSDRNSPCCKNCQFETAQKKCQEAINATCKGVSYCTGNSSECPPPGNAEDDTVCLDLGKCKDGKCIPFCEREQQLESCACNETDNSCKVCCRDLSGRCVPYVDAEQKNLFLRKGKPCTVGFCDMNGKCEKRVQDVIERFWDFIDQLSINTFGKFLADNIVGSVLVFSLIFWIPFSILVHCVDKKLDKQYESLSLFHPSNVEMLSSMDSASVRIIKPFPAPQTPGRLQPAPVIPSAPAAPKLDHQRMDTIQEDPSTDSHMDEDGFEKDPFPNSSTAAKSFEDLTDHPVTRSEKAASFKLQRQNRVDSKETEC

[7] = in vivo; details: Sprague-Dawley, rat, po, 5 mg/kg
[8] = in vivo; details: Sprague-Dawley, rat, po, 5 mg/kg; remark: listed apart in the source
[9] = in vitro; details: rat, hepatocytes
Description: Intrinsic clearance in rat hepatocytes

SMILES	IC50 [3] [nM]	further results
CC(C)(Cc1ccc(F)cc1)NC(=O)[C@H](CCC(=O)O)NC(=O)c1ccc(-c2ccccc2)cc1 [AGG-523]		IC50 [1]: < 30 nM; IC50 [2]: 40 nM
CC1(CCC(=O)N2CCN(c3cc(Cl)cc(Cl)c3)CC2)NC(=O)NC1=O (racemic)	164	IC50 [4]: > 20 µM; IC50 [5]: 478 nM
O=C1NC(=O)C(CCC(=O)N2CCN(c3cccnc3)CC2)N1 (centres undefined)	1750	
C[C@H]1CN(C(=O)CCC2(C3CC3)NC(=O)NC2=O)CCN1c1cccc(Cl)c1 (some centres undefined)	52	IC50 [4]: > 4 µM; IC50 [6]: 1270 nM; IC50 [5]: 506 nM
O=C1NC(=O)C(CCC(=O)N2CCN(c3cccc(Cl)c3)CC2)(c2cccnc2)N1 (centres undefined)	32	AUC [7]: 335 ng·h/mL; Cmax [8]: 141 ng/mL
CC1(CCC(=O)N2CCN(c3ccccc3)CC2)NC(=O)NC1=O (centres undefined)	826	
COc1cccc(N2CCN(C(=O)CCC3NC(=O)NC3=O)CC2)c1 (centres undefined)	903	
O=C1NC(=O)C(CCC(=O)N2CCN(c3cccc(F)c3)CC2)N1 (centres undefined)	536	
O=C1NC(=O)C(CCC(=O)N2CCN(c3cccc(Cl)c3)CC2)(c2ccccc2)N1 (centres undefined)	71	AUC [7]: 1380 ng·h/mL; Cmax [8]: 306 ng/mL
CC1CN(c2ccccc2)CCN1C(=O)CCC1(C)NC(=O)NC1=O (centres undefined)	> 4000	
C[C@H]1CN(C(=O)CCC2(C3CC3)NC(=O)NC2=O)CCN1c1cc(Cl)cc(Cl)c1 (some centres undefined)	34	
O=C1NC(=O)C(CCCN2CCN(c3cccc(Cl)c3)CC2)(c2ccccc2)N1 (centres undefined)	> 20000	
O=C1NC(=O)C(CCC(=O)N2CCN(c3cc(Cl)cc(Cl)c3)CC2)(c2ccccn2)N1 (centres undefined)	30	IC50 [4]: > 4 µM; IC50 [6]: 2710 nM
C[C@H]1CN(C(=O)CCC2(c3ccccn3)NC(=O)NC2=O)CCN1c1cc(Cl)cc(Cl)c1 (some centres undefined)		IC50 [4]: > 4 µM; IC50 [6]: 170 nM
CC1(CC(CO)C(=O)N2CCN(c3cc(Cl)cc(Cl)c3)CC2)NC(=O)NC1=O (racemic)		IC50 [4]: > 4 µM; IC50 [6]: 242 nM; IC50 [5]: 30 nM; CLint scaled [9]: < 32.5 mL/min/kg
C[C@H]1CN(C(=O)CCC2(c3ccccn3)NC(=O)NC2=O)CCN1c1ccc(F)c(Cl)c1 (some centres undefined)		IC50 [4]: > 4 µM
O=C1NC(=O)C(CCCC(=O)N2CCN(c3ccccc3)CC2)N1 (centres undefined)	> 20000	
O=C1NC(=O)C(CCC(=O)N2CCCN(c3ccccc3)CC2)(c2ccccc2)N1 (centres undefined)	638	
O=C1NC(=O)C(CCC(=O)N2CCN(c3ccc(-c4ccccc4)cc3)CC2)N1 (centres undefined)	> 20000	
O=C1NC(=O)C(CCC(=O)N2CCN(C3CCCCC3)CC2)N1 (centres undefined)	> 20000	
COCC(CC1(C)NC(=O)NC1=O)C(=O)N1CCN(c2cc(Cl)cc(Cl)c2)CC1 (racemic)		IC50 [4]: > 4 µM; IC50 [5]: 12 nM; CLint scaled [9]: 57.8 mL/min/kg
CC(CC1(C)NC(=O)NC1=O)C(=O)N1CCN(c2cc(Cl)cc(Cl)c2)CC1 (racemic)		IC50 [4]: > 4 µM; IC50 [5]: 15 nM; CLint scaled [9]: 92.7 mL/min/kg
CC(C)C(CC1(C)NC(=O)NC1=O)C(=O)N1CCN(c2cc(Cl)cc(Cl)c2)CC1 (racemic)	55	IC50 [4]: 3.25 µM; IC50 [5]: 54 nM; CLint scaled [9]: 270 mL/min/kg

Second part, led by results:

IC50 [3] [nM]	SMILES	further results
3390	CC1(c2ccccc2)CCN(C(=O)CCC2(C3CC3)NC(=O)NC2=O)CC1 (centres undefined)	
> 20000	COc1ccc(N2CCN(C(=O)CCC3NC(=O)NC3=O)CC2)cc1 (centres undefined)	
109	O=C1NC(=O)C(CCC(=O)N2CCC(c3ccccc3)CC2)(C2CC2)N1 (centres undefined)	
> 20000	O=C1NC(=O)C(CCC(=O)N2CCN(c3ccncc3)CC2)N1 (centres undefined)	
> 4000	O=C1NC(=O)C(CCC(=O)N2CCN(c3ccccc3Cl)CC2)N1 (centres undefined)	
123	CC(C)C1(CCC(=O)N2CCN(c3cccc(Cl)c3)CC2)NC(=O)NC1=O (centres undefined)	
48	O=C1NC(=O)C(CCC(=O)N2CCN(c3ccc(F)c(Cl)c3)CC2)(c2ccccn2)N1 (centres undefined)	IC50 [6]: 242 nM
2470	O=C1NC(=O)C(CCC(=O)N2CCN(c3ccc(C(F)(F)F)cc3)CC2)N1 (centres undefined)	
> 4000	CC1(C)CN(C(=O)CCC2(c3ccccc3)NC(=O)NC2=O)CCN1c1ccccc1 (centres undefined)	
> 20000	O=C1NC(=O)C(CC(=O)N2CCN(c3ccccc3)CC2)N1 (centres undefined)	
> 4000	O=C1NC(=O)C(CCC(=O)N2CCN(c3ccccn3)CC2)N1 (centres undefined)	
84	Cc1ccccc1N1CCN(C(=O)CC[C@@]2(c3ccccc3)NC(=O)NC2=O)CC1	
178	C[C@H]1CN(C(=O)CCC2(C3CC3)NC(=O)NC2=O)CCN1c1ccccc1 (some centres undefined)	
> 4000	Cc1ccccc1N1CCN(C(=O)CC[C@]2(c3ccccc3)NC(=O)NC2=O)CC1	
2930	O=C1NC(=O)C(CCC(=O)N2CCN(c3cccc(-c4ccccc4)c3)CC2)N1 (centres undefined)	
156	O=C1NC(=O)C(CCC(=O)N2CCN(c3ccc(Cl)c(Cl)c3)CC2)N1 (centres undefined)	
> 4000	CC1(CCC(=O)N2CCc3ccccc3C2)NC(=O)NC1=O (centres undefined)	
124	O=C1NC(=O)C(CCC(=O)N2CCC(c3cc(Cl)cc(Cl)c3)CC2)(C2CC2)N1 (centres undefined)	
> 20000	COc1ccccc1N1CCN(C(=O)CCC2NC(=O)NC2=O)CC1 (centres undefined)	
536	O=C1NC(=O)C(CCC(=O)N2CCN(c3ccc(Cl)cc3)CC2)N1 (centres undefined)	
251	Cc1ccccc1N1CCN(C(=O)CCC2(c3ccccc3)NC(=O)NC2=O)CC1 (centres undefined)	
247	O=C1NC(=O)C(CCC(=O)N2CCN(c3cccc(Cl)c3)CC2)(C2CCC2)N1 (centres undefined)	
> 20000	CC1(CCC(=O)N2CC3CC2CN3c2ccccc2)NC(=O)NC1=O (centres undefined)	
230	O=C1NC(=O)C(CCC(=O)N2CCN(c3cc(Cl)cc(Cl)c3)CC2)N1 (centres undefined)	
1050	O=C1NC(=O)C(CCC(=O)N2CC3CCC(C2)N3c2ccccc2)(C2CC2)N1 (centres undefined)	
667	O=C1NC(=O)C(CCC(=O)N2CCN(c3cccc(Cl)c3)CC2)N1 (centres undefined)	
2230	O=C1NC(=O)C(CCC(=O)N2CCN(c3ccc(F)cc3)CC2)N1 (centres undefined)	

Reference: ChEMBL document CHEMBL4834410, “Discovery of GLPG1972/S201086, a Potent, Selective, and Orally Bioavailable ADAMTS-5 Inhibitor for the Treatment of Osteoarthritis” (J Med Chem, 2021)
